Assay: molar heat capacity at constant pressure
Conditions: 101.33 kPa, Crystal, Large sample (1 g) DSC

C[C@@H]1CC[C@H]2[C@@H](C)C(=O)O[C@@H]3O[C@@]4(C)CC[C@@H]1[C@]32OO4 [artemisinin]
Conditions	molar heat capacity at constant pressure [J/K/mol]
80.88 K	106.29
84.39 K	107.4
87.31 K	111.29
90.28 K	115.11
93.15 K	118.77
96.08 K	122.29
99.06 K	126.22
101.96 K	129.96
104.91 K	133.57
107.91 K	137.36
110.85 K	141.04
113.72 K	144.58
116.65 K	147.72
119.63 K	151.4
122.57 K	154.67
125.44 K	158.04
128.38 K	161.18
131.37 K	164.32
134.31 K	167.29
137.21 K	170.2
140.06 K	173.58
142.85 K	175.98
145.7 K	178.74
148.61 K	181.39
151.48 K	184.15
154.31 K	188.26
157.09 K	189.51
159.85 K	190.78
162.66 K	193.14
165.54 K	194.65
168.38 K	196.91
171.2 K	197.84
173.98 K	199.03
176.74 K	201.03
179.47 K	203.22
182.17 K	204.81
184.93 K	207.17
187.75 K	209.02
190.54 K	210.2
193.3 K	211.69
196.04 K	214.53
198.78 K	218.09
201.49 K	234.61
204.35 K	248.75
207.26 K	254.52
210.15 K	259.16
213.03 K	263.67
215.98 K	268.33
218.98 K	272.61
221.97 K	277.47
224.93 K	283.14
227.86 K	300.11
230.9 K	305.21
234.15 K	304.08
237.2 K	300.49
240.2 K	312.96
243.25 K	303.71
246.2 K	290.19
249.15 K	291.35
252.08 K	292.72
254.99 K	294.78
257.88 K	295.87
260.75 K	297.43
263.6 K	299.57
266.43 K	301.66
269.3 K	304.16
272.21 K	307.87
275.11 K	309.22
278.48 K	312.58
282.32 K	315.57
286.12 K	318.4
289.88 K	323.79
293.71 K	327.62
297.59 K	331.62
301.45 K	336.33
305.28 K	339.95
309.08 K	344.57
312.86 K	351.73
316.64 K	334.75
320.44 K	337.71
324.16 K	338.79
327.84 K	344.42
331.58 K	356.39
335.37 K	360.69
339.11 K	368.06
342.41 K	376.18
345.26 K	376.26
348.11 K	388.36
350.96 K	394.39
353.85 K	397.54
356.81 K	403.86
359.88 K	413.08
363.03 K	429.5

From the NIST ThermoML archive (doi:10.1016/j.tca.2007.04.007)
